IC50 and Ki data for five compounds are collected here from ChEMBL document CHEMBL1909046, “DrugMatrix in vitro pharmacology data”.

The target of data set [1] is T1, Adenosine receptor A3 (Homo sapiens, UniProt P0DMS8).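 Further: radioligand binding assay with AB-MECA serving as the labeled ligand; in other assays of this panel Not Active means under 50% inhibition at 10 µM.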
T1 sequence (P0DMS8 whole entry): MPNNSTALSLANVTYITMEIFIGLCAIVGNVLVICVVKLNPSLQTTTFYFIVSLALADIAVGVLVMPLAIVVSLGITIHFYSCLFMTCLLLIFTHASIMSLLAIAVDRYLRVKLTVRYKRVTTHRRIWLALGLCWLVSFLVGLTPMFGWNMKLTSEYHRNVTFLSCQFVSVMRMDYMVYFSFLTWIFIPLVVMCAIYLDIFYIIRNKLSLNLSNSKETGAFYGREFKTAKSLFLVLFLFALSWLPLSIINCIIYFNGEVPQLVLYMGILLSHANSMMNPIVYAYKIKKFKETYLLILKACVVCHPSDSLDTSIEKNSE
Type of data set: cell membranes, CHO-K1, Membrane.

The target in data set [2] is Platelet-activating factor receptor (Homo sapiens, UniProt P25105). Description: biochemical. The data set is classed as tissue-based. Further: in other assays of this panel Not Active means under 50% inhibition at 10 µM.
Sequence of Platelet-activating factor receptor (P25105 whole entry): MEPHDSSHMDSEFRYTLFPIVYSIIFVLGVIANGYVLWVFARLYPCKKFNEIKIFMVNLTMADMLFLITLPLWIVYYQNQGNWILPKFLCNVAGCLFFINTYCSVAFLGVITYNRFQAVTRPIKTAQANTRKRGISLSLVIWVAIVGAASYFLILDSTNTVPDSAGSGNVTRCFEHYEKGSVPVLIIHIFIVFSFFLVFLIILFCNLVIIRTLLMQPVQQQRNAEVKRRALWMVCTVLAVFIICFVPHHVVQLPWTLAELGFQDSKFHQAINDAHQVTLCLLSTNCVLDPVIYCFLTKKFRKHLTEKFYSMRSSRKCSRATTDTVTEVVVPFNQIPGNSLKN
The target in data set [3] is Vascular endothelial growth factor receptor 1 (Homo sapiens, UniProt P17948). The data set is classed as cell-based. As to conditions: huvec. Further: in other assays of this panel Not Active means under 50% inhibition at 10 µM.
Data set [4] deals with T2, Cysteinyl leukotriene receptor 1 (Homo sapiens, UniProt Q9Y271).
T2 sequence (Q9Y271 whole entry): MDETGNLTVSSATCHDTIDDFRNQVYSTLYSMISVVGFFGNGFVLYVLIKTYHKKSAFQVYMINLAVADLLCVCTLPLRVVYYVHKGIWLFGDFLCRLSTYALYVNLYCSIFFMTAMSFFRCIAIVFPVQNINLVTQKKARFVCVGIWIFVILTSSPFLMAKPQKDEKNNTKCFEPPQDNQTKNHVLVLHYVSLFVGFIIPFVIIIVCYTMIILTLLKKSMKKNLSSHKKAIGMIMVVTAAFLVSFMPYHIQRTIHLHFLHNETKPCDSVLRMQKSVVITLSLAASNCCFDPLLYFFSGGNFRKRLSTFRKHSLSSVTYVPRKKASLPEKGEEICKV
Type of data set: cell membranes, CHO-K1, Membrane.

The target of data set [5] is C-C chemokine receptor type 5 (Homo sapiens, UniProt P51681). Type of data set: cell membranes, Membrane. Conditions: hek293. Further: in other assays of this panel Not Active means under 50% inhibition at 10 µM.
Sequence of C-C chemokine receptor type 5 (P51681 whole entry): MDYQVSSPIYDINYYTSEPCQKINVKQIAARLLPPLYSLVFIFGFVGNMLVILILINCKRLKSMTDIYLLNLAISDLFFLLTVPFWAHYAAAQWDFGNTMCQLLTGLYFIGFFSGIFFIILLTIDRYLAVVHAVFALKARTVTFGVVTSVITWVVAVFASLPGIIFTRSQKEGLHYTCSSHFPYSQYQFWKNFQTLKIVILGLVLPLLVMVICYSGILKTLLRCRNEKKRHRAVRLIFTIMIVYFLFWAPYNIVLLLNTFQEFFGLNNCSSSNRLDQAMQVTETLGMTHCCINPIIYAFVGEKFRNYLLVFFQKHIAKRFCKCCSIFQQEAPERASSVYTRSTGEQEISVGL
For data set [6], the target named is T3, Type-2 angiotensin II receptor (Homo sapiens, UniProt P50052). Further: in other assays of this panel Not Active means under 50% inhibition at 10 µM.
T3 sequence (P50052 whole entry): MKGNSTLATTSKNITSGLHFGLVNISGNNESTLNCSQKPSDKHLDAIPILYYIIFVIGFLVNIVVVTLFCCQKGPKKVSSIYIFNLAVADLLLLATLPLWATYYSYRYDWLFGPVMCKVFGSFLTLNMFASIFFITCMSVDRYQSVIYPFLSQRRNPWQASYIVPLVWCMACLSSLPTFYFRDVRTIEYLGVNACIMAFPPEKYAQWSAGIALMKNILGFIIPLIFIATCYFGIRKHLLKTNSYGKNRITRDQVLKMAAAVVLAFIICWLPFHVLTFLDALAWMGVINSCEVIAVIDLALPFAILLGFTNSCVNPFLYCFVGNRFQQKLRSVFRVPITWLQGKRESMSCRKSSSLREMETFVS
Type of data set: cell-based. As to conditions: cho-k1.

Data set [7] deals with Nitric oxide synthase 1 (Rattus norvegicus, UniProt P29476). The data set is classed as tissue-based, Cerebellum.
Sequence of Nitric oxide synthase 1 (P29476 whole entry): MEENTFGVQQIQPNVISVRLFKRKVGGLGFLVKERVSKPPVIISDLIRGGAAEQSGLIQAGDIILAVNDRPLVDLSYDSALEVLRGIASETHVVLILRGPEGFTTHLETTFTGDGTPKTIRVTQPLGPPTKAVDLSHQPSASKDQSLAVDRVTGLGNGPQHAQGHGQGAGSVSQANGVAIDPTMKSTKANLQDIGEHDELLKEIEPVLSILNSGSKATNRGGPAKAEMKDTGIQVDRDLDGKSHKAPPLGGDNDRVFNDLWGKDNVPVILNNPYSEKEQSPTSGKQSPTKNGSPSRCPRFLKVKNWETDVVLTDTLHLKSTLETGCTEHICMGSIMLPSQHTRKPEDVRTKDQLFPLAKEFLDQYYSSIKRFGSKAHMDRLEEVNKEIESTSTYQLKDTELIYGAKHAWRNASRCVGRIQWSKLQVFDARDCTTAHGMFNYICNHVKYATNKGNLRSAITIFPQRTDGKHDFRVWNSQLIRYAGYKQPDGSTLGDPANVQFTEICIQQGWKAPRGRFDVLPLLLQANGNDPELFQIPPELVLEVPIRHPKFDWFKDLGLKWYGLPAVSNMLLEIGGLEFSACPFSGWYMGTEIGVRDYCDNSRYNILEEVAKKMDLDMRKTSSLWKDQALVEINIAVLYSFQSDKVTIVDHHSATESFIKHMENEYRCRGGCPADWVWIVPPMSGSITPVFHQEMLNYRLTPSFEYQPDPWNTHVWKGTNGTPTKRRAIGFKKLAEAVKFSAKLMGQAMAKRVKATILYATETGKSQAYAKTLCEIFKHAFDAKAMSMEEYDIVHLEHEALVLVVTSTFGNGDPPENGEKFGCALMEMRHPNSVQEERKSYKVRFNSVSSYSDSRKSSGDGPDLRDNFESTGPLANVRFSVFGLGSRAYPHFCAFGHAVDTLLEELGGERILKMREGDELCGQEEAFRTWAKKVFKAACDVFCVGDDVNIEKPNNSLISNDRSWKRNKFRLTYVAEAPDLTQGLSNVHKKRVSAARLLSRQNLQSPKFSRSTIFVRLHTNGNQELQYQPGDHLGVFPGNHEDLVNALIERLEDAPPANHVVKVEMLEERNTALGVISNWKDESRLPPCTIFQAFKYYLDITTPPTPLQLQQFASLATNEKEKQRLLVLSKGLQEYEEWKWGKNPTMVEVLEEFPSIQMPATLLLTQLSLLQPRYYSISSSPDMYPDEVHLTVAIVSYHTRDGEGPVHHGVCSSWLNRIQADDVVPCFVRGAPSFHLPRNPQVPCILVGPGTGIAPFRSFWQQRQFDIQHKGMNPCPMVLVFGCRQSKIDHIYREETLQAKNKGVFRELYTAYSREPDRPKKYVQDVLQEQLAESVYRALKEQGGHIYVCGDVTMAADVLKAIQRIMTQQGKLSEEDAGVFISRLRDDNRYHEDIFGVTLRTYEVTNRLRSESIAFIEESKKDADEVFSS
Data set [8] concerns the target Mitogen-activated protein kinase 3 (Homo sapiens, UniProt P27361). Description: DRUGMATRIX: Protein Serine/Threonine Kinase, ERK1 enzyme inhibition (substrate: Myelin Basic Protein). As to conditions: Not Active = under 50% inhibition at 10 µM. On the set-up: species or system Escherichia coli.
The target in data set [9] is T4, Substance-K receptor (Homo sapiens, UniProt P21452). Further: in other assays of this panel Not Active means under 50% inhibition at 10 µM.
T4 sequence (P21452 whole entry): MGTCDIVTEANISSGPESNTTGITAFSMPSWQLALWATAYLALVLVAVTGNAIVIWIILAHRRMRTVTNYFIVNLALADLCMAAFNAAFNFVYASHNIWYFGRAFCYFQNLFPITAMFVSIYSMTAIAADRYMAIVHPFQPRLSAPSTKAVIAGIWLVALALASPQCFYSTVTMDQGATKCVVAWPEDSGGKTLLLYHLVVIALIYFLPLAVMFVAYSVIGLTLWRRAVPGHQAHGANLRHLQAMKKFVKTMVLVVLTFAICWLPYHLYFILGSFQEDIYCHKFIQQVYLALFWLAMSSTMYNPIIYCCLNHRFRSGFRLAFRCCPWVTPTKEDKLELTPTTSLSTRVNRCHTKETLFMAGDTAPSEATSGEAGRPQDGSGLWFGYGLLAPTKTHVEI
Type of data set: cell membranes, CHO, Membrane.

Data set [10] deals with Cytochrome P450 2E1 (Homo sapiens, UniProt P05181). Conditions: bti-tn-5b1-4.
Sequence of Cytochrome P450 2E1 (P05181 whole entry): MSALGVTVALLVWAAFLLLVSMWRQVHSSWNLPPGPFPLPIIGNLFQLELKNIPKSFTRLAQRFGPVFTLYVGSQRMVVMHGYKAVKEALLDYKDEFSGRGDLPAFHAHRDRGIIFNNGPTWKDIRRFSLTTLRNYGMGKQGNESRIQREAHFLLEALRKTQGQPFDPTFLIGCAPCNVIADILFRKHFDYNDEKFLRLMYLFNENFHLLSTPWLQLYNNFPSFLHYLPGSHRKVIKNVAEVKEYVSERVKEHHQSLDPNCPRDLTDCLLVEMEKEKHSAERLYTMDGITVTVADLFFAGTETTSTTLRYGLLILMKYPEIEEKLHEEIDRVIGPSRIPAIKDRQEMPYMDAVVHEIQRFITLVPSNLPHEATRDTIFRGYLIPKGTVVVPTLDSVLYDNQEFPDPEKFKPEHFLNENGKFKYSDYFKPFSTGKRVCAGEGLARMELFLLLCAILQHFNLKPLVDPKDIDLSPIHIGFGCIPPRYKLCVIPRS
Data set [11] addresses Vasopressin V1a receptor (Homo sapiens, UniProt P37288). Type of data set: cell membranes, Membrane. Conditions: hek293.
Data set [12] deals with Histamine H2 receptor (Homo sapiens, UniProt P25021). The data set is classed as cell membranes, CHO-K1, Membrane.
Sequence of Histamine H2 receptor (P25021 whole entry): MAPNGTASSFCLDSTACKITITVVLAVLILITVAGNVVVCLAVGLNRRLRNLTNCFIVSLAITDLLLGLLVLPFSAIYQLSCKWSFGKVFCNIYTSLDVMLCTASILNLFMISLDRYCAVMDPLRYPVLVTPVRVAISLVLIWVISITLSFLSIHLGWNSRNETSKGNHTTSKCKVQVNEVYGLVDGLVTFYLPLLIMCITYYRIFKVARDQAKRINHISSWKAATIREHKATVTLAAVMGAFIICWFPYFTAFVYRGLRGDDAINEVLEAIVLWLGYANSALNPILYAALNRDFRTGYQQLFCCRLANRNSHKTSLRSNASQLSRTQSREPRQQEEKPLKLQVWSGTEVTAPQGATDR
Data set [13] concerns the target Cannabinoid receptor 1 (Homo sapiens, UniProt P21554). The data set is classed as cell membranes, Membrane. Conditions: chem-1. Further: in other assays of this panel Not Active means under 50% inhibition at 10 µM.
Data set [14] addresses T5, D(4) dopamine receptor (Homo sapiens, UniProt P21917).
T5 sequence (P21917 whole entry): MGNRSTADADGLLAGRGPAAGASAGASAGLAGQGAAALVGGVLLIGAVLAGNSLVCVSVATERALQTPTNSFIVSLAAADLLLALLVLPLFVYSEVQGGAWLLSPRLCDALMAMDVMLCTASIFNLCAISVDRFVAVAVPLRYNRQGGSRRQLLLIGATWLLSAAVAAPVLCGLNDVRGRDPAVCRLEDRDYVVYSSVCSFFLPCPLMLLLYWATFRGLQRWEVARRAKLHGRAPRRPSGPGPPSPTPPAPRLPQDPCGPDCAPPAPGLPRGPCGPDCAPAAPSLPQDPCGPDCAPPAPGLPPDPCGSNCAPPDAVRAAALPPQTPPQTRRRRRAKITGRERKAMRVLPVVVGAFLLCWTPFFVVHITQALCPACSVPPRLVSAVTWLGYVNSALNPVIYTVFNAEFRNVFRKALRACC
Description: DRUGMATRIX: Dopamine D4.2 radioligand binding (ligand: [3H] Spiperone). Type of data set: cell membranes, CHO-K1, Membrane. As to conditions: Not Active = under 50% inhibition at 10 µM.

Data set [15] can be described thus: DRUGMATRIX: Sodium/nucleoside co-transporter radioligand binding (ligand: nitrobenzylthioinosine). As to conditions: Not Active = under 50% inhibition at 10 µM. Type of data set: cell membranes, Cavia porcellus, Dunkin-Hartley, Cerebral cortex, Membrane.
Data set [16] in a line: DRUGMATRIX: GABAA, Muscimol, Central radioligand binding (ligand: [3H] Muscimol). The data set is classed as cell membranes, Rattus norvegicus, Wistar, Brain, Membrane. Conditions: Not Active = under 50% inhibition at 10 µM.
Data set [17] can be described thus: DRUGMATRIX: Imidazoline I2, Central radioligand binding (ligand: [3H] Idazoxan). The data set is classed as cell membranes, Rattus norvegicus, Wistar, Cerebral cortex, Membrane. Conditions: Not Active = under 50% inhibition at 10 µM.
Data set [18] can be described thus: DRUGMATRIX: ATPase, Na+/K+ enzyme inhibition (substrate: ATP). Type of data set: tissue-based, Sus scrofa, Heart. As to conditions: Not Active = under 50% inhibition at 10 µM.

Sequence of Mitogen-activated protein kinase 3 (P27361 whole entry): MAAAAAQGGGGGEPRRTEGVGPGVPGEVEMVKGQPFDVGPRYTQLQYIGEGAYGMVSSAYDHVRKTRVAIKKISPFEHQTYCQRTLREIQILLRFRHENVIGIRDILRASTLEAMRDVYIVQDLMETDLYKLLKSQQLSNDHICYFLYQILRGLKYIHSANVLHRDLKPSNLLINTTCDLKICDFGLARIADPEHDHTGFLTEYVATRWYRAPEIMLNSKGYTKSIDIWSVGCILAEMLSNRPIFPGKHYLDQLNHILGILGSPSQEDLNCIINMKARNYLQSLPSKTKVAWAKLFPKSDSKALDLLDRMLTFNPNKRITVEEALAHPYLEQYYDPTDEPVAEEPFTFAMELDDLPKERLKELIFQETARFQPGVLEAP
Sequence of Vasopressin V1a receptor (P37288 whole entry): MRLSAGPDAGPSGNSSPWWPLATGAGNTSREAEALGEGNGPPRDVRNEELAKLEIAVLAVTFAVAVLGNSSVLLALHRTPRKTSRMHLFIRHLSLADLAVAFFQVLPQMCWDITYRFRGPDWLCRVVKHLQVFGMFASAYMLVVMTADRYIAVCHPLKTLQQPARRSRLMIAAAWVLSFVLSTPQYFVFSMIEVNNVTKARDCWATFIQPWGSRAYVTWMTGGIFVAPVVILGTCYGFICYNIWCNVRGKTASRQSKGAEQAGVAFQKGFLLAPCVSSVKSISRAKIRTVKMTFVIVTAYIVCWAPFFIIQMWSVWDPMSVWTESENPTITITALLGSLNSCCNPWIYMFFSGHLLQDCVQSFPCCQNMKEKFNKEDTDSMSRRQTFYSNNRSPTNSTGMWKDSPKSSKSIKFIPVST
Sequence of Cannabinoid receptor 1 (P21554 whole entry): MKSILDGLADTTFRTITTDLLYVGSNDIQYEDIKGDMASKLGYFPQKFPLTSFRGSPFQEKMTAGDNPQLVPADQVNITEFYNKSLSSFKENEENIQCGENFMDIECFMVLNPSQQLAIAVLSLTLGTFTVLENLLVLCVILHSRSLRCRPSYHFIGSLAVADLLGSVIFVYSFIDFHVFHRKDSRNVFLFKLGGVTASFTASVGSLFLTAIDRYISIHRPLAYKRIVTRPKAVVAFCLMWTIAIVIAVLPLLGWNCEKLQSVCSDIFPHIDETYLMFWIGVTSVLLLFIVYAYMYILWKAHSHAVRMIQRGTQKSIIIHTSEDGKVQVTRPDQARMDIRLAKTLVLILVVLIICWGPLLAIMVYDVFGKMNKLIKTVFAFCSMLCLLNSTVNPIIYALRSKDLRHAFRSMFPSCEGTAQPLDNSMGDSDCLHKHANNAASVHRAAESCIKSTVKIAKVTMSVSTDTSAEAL

What is called IC50 is the concentration that gives 50% inhibition. By Ki is commonly meant the equilibrium dissociation constant of an inhibitor or competing ligand from its target. Consider `Clc1ccccc1C(c1ccccc1)(c1ccccc1)n1ccnc1` [CLOTRIMAZOLE], for which the IC50 in data set [1] (read-out: IC50) was 4.75 µM; in data set [2] (read-out: IC50), 35 µM; in data set [3], “Not Active”; in data set [4] (read-out: IC50) it was 33.2 µM; in data set [5], “Not Active”; in [6], “Not Active”. Also, the IC50 entry was “Not Active” in data set [7]; “Not Active” in data set [8]; 10.1 µM in data set [9] (read-out: IC50); “Not Active” in data set [10]; “Not Active” in data set [11]; 5.17 µM in [12] (read-out: IC50). Further, the IC50 entry is “Not Active” in data set [13] and 19.9 µM in [14] (read-out: IC50). Moreover, the Ki in data set [1] (read-out: Ki) is 2.69 µM; in data set [2] (read-out: Ki) it was 22.6 µM; in data set [4] (read-out: Ki) it was 16.6 µM; in data set [9] (read-out: Ki), 3.38 µM; in data set [10], “Not Active”; in data set [12] (read-out: Ki), 5.08 µM. In [14] (read-out: Ki), the Ki came out at 6.99 µM.

`O=C1c2c(O)ccc(O)c2C(=O)c2c(NCCNCCO)ccc(NCCNCCO)c21` [MITOXANTRONE]: the IC50 result in data set [15], in data set [1] (cho-k1), in [2] (platelet), in data set [3], in [4] (cho-k1) and in data set [5] was “Not Active” each time. The IC50 result in [6], in data set [16], in data set [7], in data set [17], in data set [8] and in data set [9] (cho) was “Not Active” throughout. The half-inhibitory concentration (IC50) result in [11], in data set [18], in [12] (cho-k1), in data set [13] and in data set [14] (cho-k1) was “Not Active” in each case. The Ki entry in data set [15], in data set [16], in data set [17] and in [18] was “Not Active” each time.

`CN[C@@H]1[C@@H](O)[C@@H](O[C@@H]2[C@@H](O)[C@H](O[C@H]3OC(CN)=CC[C@H]3N)[C@@H](N)C[C@H]2N)OC[C@]1(C)O` [SISOMICIN]: the IC50 result in [15], in data set [1] (cho-k1), in data set [2] (platelet), in [3], in [4] (cho-k1) and in data set [5] was “Not Active” each time. For the same compound, the IC50 result in data set [6], in data set [16], in [7], in data set [17], in data set [8] and in data set [9] (cho) was “Not Active” in each case. For the same compound, the IC50 entry in [11], in data set [18], in [12] (cho-k1), in data set [13] and in [14] (cho-k1) was “Not Active” in each case. Besides, the Ki entry in [15], in data set [16], in data set [17] and in data set [18] was “Not Active” throughout.

`COc1cccc(C2(O)CCCCC2CN(C)C)c1` (centres undefined) [TRAMADOL]: the IC50 result in data set [1] (cho-k1), in [2] (platelet), in [3], in data set [4] (cho-k1), in data set [5] and in data set [6] was “Not Active” in each case. Further, the IC50 result in data set [7], in data set [8], in data set [9] (cho), in data set [10], in data set [11] and in [12] (cho-k1) was “Not Active” in each case. In addition, the IC50 result in [13] and in data set [14] (cho-k1) was “Not Active” each time. Further, in data set [10], the Ki entry was “Not Active”.

As to `COC(=O)[C@@H]1[C@H]2C[C@H]3c4[nH]c5ccccc5c4CCN3C[C@@H]2CC[C@@H]1O` [YOHIMBINE], the IC50 entry in data set [15], in [1] (cho-k1), in data set [2] (platelet), in data set [3], in data set [4] (cho-k1) and in data set [5] was “Not Active” throughout. Also, the IC50 result is “Not Active” in [6]; “Not Active” in [16]; “Not Active” in data set [7]; 0.157 µM in [17] (read-out: IC50); “Not Active” in data set [8]; “Not Active” in data set [9] (cho). Moreover, the IC50 entry in data set [11], in data set [18], in data set [12] (cho-k1), in data set [13] and in [14] (cho-k1) was “Not Active” throughout. For the same compound, the Ki result in data set [15] was “Not Active”; in [16], “Not Active”; in [17] (read-out: Ki) it was 0.105 µM; in data set [18], “Not Active”.
